Measured values published in patent US8697839B2, “GQ protein competitive inhibitory polypeptides, preparation methods and uses thereof” (Third Military Medical University, priority 2008, dated 2014).
Marks after values point to notes of the source that are not given here.

Columns and labels:
[1] = test system: rats with spontaneous hypertension (SHR); assay: myocardial remodeling and blood pressure in rats with spontaneous hypertension (SHR); assay type: in vivo, rat; settings: losartan 6 mg/kg intragastric qd
Protocol: 1. Thirty 13-week-old rats with spontaneous hypertension (SHR, purchased from Beijing Vital River Laboratory Animal Technology Co. Ltd., Beijing) were selected and randomly assigned into five groups with 6 rats per group:
SHR model group (Vehicle): 0.9% physiological saline, intraperitoneal injection at a dosage of 5 ml/kg, bid.
Positive control group (losartan): potassium losartan at a dosage of 6 mg/kg, intragastric administration, qd.
The pentadecapeptide group: administration of the pentadecapeptide at a dosage of 30 μg/kg by intraperitoneal injection, bid.
The heptacosapeptide group: administration of the heptacosapeptide at a dosage of 30 μg/kg by intraperitoneal injection, bid.
The pantapentacontapeptide group: administration of the pantapentacontapeptide at a dosage of 30 μg/kg by intraperitoneal injection, bid.
Six of INKY (Wistar-Kyoto) rats (purchased from Center for Experimental Animals, Third Military Medical University) were additionally selected as the normal control.
2. Intervention with the drug was performed consecutively for eight weeks (from Week 14 to Week 21). The body weights of all the tested rats were obtained once every two weeks, and the administration dosage was adjustedbased on body weights.

[2] = clinical dosage converted into the dosage in the mouse; cited from earlier work
[3] = echocardiography, SHR, x ± s, n = 6

For `CCCCc1nc(Cl)c(CO)n1Cc1ccc(-c2ccccc2-c2nn[nH]n2)cc1` [Losartan, potassium losartan], the “Systolic blood pressure of artery” value ([1]; 0 w, SHR, x ± s, n = 6) was 178.3 ± 2.24 mmHg, the “Systolic blood pressure of artery” value ([1]; 2 w, SHR, x ± s, n = 6) was 165.1 ± 4.80 mmHg and the “Systolic blood pressure of artery” value ([1]; 4 w, SHR, x ± s, n = 6) was 177.1 ± 8.27 mmHg. For the same compound, the “Systolic blood pressure of artery” value ([1]; 6 w, SHR, x ± s, n = 6) was 178.3 ± 6.23 mmHg, the “Systolic blood pressure of artery” value ([1]; 8 w, SHR, x ± s, n = 6) was 172.6 ± 4.82 mmHg and the “EF (ejection fraction)” value [1, 3] was 88.8 ± 2.62%. The “FS (shortening fraction)” value [1, 3] was 53.6 ± 3.57%, the “IVST (intervertricular septum thickness)” value [1, 3] was 1.87 ± 0.18 mm and the “LAD (left atrium sinistrum diameter)” value [1, 3] was 3.25 ± 0.23 mm. For the same compound, the “LVEDD (left ventricular end diastolic diameter)” value [1, 3] was 5.05 ± 0.42 mm, the LVESD [1, 3] was 2.33 ± 0.18 mm and the “PWT (left ventricular posterior wall thickness)” value [1, 3] was 2.25 ± 0.21 mm. The “SV (stroke volume)” value [1, 3] was 0.21 ± 0.04 mL, the HI ([1]; eight weeks, SHR, x ± s, n = 6) was 3.48 ± 0.05 mg/g and the HW ([1]; eight weeks, SHR, x ± s, n = 6) was 1003 ± 16 mg. The LVI ([1]; eight weeks, SHR, x ± s, n = 6) was 2.74 ± 0.28 mg/g, the LVW ([1]; eight weeks, SHR, x ± s, n = 6) was 789 ± 88 mg and the “morphology of the cardiac muscle tissues, light microscope” value ([1]; FIG. 2) was “Pathological changes are somewhat improved”. The “ultrastructure of the SHR cardiocyte, transmission electron microscope” value ([1]; FIG. 5) was “morphology of the cellular nucleus is essentially normal and somewhat irregular”, the “CSA in comparison with the model group” value ([1]; P<0.01) was “significantly decreased” and the “CSA (cross section area of the cardiocyte)” value ([1]; SHR, x ± s, n = 6) was 335 ± 20** μm^2. The “TDM (trans diameter of the cardiocyte)” value ([1]; SHR, x ± s, n = 6) was 13.83 ± 2.54 μm and the “ratio of mouse LD50/routine dosage” value [2] was 349.
